We go through four compounds from patent US12202829B2, “Heterocyclic compound” (FIMECS, Inc., priority 2018, dated 2025).

Structures can show the parent of a compound that is named as a salt.

The target of assay [1] is T1, human XIAP_BIR3 domain purified protein (Homo sapiens, UniProt P98170).
T1 construct: purchased R & D
Nature of the assay: XIAP binding inhibitory activity, HTRF method with b-Smac ligand. The note with it: for IC50: second symbol of the cell, read-out: XIAP binding 50% inhibitory concentration (IC50 value); for inhibition at 3 µM: test compound 3 μM, first symbol of the cell, read-out: XIAP binding inhibition rate when the concentration of the test compound is 3 μM. Summed up:
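HTRF competition: human XIAP BIR3 and C-terminally biotinylated Smac peptide AVPIAQK, each diluted to 90 nM before addition, in HEPES pH 7.5 buffer with NaCl, BSA, Triton X-100. Eu-cryptate anti-His/streptavidin-XL665 detection after ≥4 h at room temperature; inhibition % from 665/615 ratio versus no-compound control.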

Another assay addresses T2, BCR-ABL (Homo sapiens, UniProt P00519).
T2 construct: BCR N-terminal part (natural fusion partner, P11274); endogenous in cells; host or cells: K562 (ECACC); the other entry of the earlier key: BCR (P11274, Breakpoint cluster region protein)
Put plainly: In vitro degradation activity of BCR-ABL in K562 cells, western blotting. It is filed as cell-based. To be noted: test compound 30 μM, 24 hours, relative to DMSO control set at 100. As for the experimental part: In vitro degradation activities of BCR-ABL of the example compounds were evaluated by the following method. K562 cells were purchased from ECACC and cultured in RPMI-1640 supplemented with 10% FBS and 1% penicillin/streptomycin. K562 cells were seeded at a density of 1×10^6 cells/well in 24-well plate and treated with DMSO control or Example 80 and 81 (1, 3, 10, 30 μM), and then incubated for 24 hours. The cells were collected and lysed on ice for 30 minutes in lysis buffer (0.5% Triton X-100, 0.01 M Tris-HCl (pH 8.0), 0.15 M NaCl) containing a protease inhibitor cocktail (Sigma-Aldrich). The lysates were vortexed for 2 minutes and centrifuged for 15 minutes at 15 krpm at 4° C. Protein concentrations were determined by the BCA assay (Thermo Fisher). Proteins were separated with Nu-PAGE (Thermo Fisher) and analyzed by western blotting (standard protocol) using antibodies of anti-BCR (Cell Signaling #3902), and R-actin (Sigma #A2066). Bands (luminescent intensities) were quantified using LAS-4000 luminescent image analyzer (Fuji). The values of BCR-ABL were corrected by the internal control value of R-actin and analyzed relative to DMSO control set at 100. The remaining protein rate (%) are described as A≤25%, 25%<B≤50%, 50%<C≤75%, D>75% when the concentration of the test compound is 30 μM.
In general terms: A western blot detects proteins with antibodies after separation by electrophoresis.

The next assay concerns the target T3, XIAP (Homo sapiens, UniProt P98170).
T3 construct: endogenous in cells; host or cells: THP1 (ATCC)
Nature of the assay: In vitro degradation activity of XIAP in THP1 cells, western blotting. The format is cell-based. The note with it: test compound 10 μM, 24 hours, relative to DMSO control set at 100. As for the experimental part:
In vitro degradation activities of XIAP of the example compounds were evaluated by the following method. THP1 cells were purchased from ATCC and cultured in RPMI-1640 supplemented with 10% FBS and 1% penicillin/streptomycin. THP1 cells were seeded at a density of 1×10^6 cells/well in 24-well plate and treated with DMSO control or Example 86 and 87 (0.001, 0.01, 0.1, 1, 10 μM), and then incubated for 24 hours. The cells were collected and lysed on ice for 30 minutes in lysis buffer (0.5% Triton X-100, 0.01 M Tris-HCl (pH 8.0), 0.15 M NaCl) containing a protease inhibitor cocktail (Sigma-Aldrich). The lysates were sonicated for 30 sec ON/30 sec OFF for ten cycles and centrifuged for 15 minutes at 15 krpm at 4° C. Protein concentrations were determined by the BCA assay (Thermo Fisher). Proteins were separated with Nu-PAGE (Thermo Fisher) and analyzed by western blotting (standard protocol) using antibodies of anti-XIAP (Cell Signaling #14334), and β-actin (Sigma #A2066). Bands (luminescent intensities) were quantified using LAS-4000 luminescent image analyzer (Fuji). The values of XIAP were corrected by the internal control value of β-actin and analyzed relative to DMSO control set at 100. The remaining protein rate (%) are described as A≤25%, 25%<B≤50%, 50%<C≤75%, D>75% when the concentration of the test compound is 10 μM.

T1 sequence (P98170 252-356 limits assumed): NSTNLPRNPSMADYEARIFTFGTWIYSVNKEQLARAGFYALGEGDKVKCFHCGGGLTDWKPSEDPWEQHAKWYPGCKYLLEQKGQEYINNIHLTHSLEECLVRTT
T3 sequence (P98170 whole entry): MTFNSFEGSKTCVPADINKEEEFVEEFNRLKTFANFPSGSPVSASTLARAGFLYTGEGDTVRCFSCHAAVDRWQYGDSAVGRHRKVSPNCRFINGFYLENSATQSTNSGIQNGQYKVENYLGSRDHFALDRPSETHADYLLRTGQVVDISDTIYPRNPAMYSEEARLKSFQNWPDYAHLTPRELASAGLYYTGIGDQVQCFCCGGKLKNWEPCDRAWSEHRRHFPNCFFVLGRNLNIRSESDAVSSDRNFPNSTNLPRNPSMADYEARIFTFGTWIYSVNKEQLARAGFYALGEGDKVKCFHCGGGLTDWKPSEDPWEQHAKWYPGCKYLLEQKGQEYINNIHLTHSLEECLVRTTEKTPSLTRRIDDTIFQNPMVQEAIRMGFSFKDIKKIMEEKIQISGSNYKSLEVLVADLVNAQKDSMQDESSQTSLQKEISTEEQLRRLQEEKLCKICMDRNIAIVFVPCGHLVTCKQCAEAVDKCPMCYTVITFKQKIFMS
T2 sequence (P00519 with tags, fused parts or gaps): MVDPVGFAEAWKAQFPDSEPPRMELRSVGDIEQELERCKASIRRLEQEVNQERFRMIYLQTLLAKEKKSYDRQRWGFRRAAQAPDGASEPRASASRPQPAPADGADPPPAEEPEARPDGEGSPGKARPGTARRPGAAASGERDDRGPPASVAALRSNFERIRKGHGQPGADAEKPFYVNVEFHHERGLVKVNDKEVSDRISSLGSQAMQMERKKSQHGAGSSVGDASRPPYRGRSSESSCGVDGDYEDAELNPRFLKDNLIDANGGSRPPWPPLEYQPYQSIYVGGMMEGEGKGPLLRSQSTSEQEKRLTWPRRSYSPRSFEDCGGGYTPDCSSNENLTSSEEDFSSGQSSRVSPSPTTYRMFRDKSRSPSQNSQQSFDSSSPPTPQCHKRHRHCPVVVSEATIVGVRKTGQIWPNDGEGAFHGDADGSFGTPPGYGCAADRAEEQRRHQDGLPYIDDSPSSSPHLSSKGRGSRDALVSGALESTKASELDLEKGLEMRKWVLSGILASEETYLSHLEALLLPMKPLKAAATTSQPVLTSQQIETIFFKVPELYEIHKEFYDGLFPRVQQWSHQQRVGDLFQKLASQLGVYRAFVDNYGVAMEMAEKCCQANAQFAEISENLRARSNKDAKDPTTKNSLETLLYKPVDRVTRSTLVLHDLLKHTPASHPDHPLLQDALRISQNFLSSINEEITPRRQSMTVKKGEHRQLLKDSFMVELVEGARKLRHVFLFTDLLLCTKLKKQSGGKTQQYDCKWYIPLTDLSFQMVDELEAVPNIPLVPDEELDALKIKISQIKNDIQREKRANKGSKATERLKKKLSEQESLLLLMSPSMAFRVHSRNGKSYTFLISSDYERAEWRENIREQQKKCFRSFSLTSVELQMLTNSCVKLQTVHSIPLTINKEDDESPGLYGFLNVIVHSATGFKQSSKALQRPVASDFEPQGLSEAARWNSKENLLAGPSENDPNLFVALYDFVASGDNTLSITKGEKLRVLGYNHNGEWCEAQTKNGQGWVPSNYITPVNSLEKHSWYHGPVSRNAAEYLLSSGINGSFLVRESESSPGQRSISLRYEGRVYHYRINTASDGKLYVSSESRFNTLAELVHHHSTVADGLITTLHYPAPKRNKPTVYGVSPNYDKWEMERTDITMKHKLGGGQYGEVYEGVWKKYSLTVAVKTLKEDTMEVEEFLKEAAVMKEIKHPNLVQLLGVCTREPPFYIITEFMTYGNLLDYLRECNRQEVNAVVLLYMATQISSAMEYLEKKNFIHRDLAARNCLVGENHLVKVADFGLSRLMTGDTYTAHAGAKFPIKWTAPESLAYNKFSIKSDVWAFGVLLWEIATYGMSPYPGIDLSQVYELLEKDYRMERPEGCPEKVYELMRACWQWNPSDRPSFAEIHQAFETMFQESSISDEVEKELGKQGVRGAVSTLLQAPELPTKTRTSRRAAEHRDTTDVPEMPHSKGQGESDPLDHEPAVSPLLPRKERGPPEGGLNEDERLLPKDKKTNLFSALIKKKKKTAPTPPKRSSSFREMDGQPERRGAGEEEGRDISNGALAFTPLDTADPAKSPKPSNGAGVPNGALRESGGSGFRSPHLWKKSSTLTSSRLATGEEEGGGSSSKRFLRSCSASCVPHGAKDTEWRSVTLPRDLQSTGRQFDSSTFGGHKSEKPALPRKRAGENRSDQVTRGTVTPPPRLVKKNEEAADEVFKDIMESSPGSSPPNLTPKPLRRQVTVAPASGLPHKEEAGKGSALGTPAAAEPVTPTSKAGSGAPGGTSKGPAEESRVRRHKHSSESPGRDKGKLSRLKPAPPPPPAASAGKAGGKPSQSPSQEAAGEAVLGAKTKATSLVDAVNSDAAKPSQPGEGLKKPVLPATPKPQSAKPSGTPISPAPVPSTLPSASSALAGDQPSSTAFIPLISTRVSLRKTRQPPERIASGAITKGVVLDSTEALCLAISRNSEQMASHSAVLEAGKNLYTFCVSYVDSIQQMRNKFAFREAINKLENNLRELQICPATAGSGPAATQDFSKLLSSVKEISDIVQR

`CN[C@@H](C)C(=O)N[C@H](C(=O)N1CCN(C(=O)c2c(C(=O)NCCOCCN3CCN(c4cc(Nc5ncc(C(=O)Nc6c(C)cccc6Cl)s5)nc(C)n4)CC3)c3cc(F)c(F)cc3n2C)CC1)C1CCCCC1` [Example 80, N-(2-Chloro-6-methylphenyl)-2-((6-(4-(2-(2-(2-(4-((S)-2-cyclohexyl-2-((S)-2-(methylamino)propanamide)acetyl)piperazine-1-carbonyl)-5,6-difluoro-1-methyl-1H-indole-3-carboxamido)ethoxy)ethyl)piperazin-1-yl)-2-methylpyrimidin-4-yl)amino)thiazole-5-carboxamide]: the IC50 in assay [1] lay in the range of 300 to 3000 nM. For the same compound, the “remaining protein rate (%) BCR-ABL” value at BCR-ABL is reported as “C (50%<C≤75%)”.

With `CN[C@@H](C)C(=O)N[C@H](C(=O)N1CCN(C(=O)c2c(C(=O)NCCOCCOCCN3CCN(c4cc(Nc5ncc(C(=O)Nc6c(C)cccc6Cl)s5)nc(C)n4)CC3)c3cc(F)c(F)cc3n2C)CC1)C1CCCCC1` [Example 81, N-(2-Chloro-6-methylphenyl)-2-((6-(4-(2-(2-(2-(2-(4-((S)-2-cyclohexyl-2-((S)-2-(methylamino)propanamido)acetyl)piperazine-1-carbonyl)-5,6-difluoro-1-methyl-1H-indole-3-carboxamido)ethoxy)ethoxy)ethyl)piperazin-1-yl)-2-methylpyrimidin-4-yl)amino)thiazole-5-carboxamide trifluoroacetate], the IC50 in assay [1] fell in the range of 300 to 3000 nM. The “remaining protein rate (%) BCR-ABL” value on BCR-ABL was “D (D>75%)”.

In the case of `CN[C@@H](C)C(=O)N[C@H](C(=O)N1CCN(C(=O)c2c(C(=O)NCCOCCOCCNC(=O)c3c(C(=O)N4CCN(C(=O)[C@@H](NC(=O)[C@H](C)NC)C5CCCCC5)CC4)n(C)c4ccc(F)cc34)c3cc(F)ccc3n2C)CC1)C1CCCCC1` [Example 86, N,N′-((Ethan-1,2-diylbis(oxy))bis(ethan-2,1-diyl))bis(2-(4-((S)-2-cyclohexyl-2-((S)-2-(methylamino)propanamido)acetyl)piperazine-1-carbonyl)-5-fluoro-1-methyl-1H-indole-3-carboxamide) bistrifluoroacetate], the “remaining protein rate (%) XIAP” value at XIAP is given as “C (50%<C≤75%)”. In assay [1], the IC50 is less than 300 nM and the inhibition at 3 µM is greater than 75%.

Regarding `CN[C@@H](C)C(=O)N[C@H](C(=O)N1CCN(C(=O)c2cc3cc(F)ccc3n2CC(=O)NCCOCCNC(=O)Cn2c(C(=O)N3CCN(C(=O)[C@@H](NC(=O)[C@H](C)NC)C4CCCCC4)CC3)cc3cc(F)ccc32)CC1)C1CCCCC1` [Example 87, (S)—N—((S)-1-Cyclohexyl-2-(4-(1-(2-((2-(2-(2-(2-(4-((R)-2-cyclohexyl-2-((R)-2-(methylamino)propanamide)acetyl)piperazine-1-carbonyl)-5-fluoro-1H-indol-1-yl)acetamide)ethoxy)ethyl)amino)-2-oxoethyl)-5-fluoro-1H-indole-2-carbonyl)piperazin-1-yl)-2-oxoethyl)-2-(methylamino)propanamide bistrifluoroacetate], the “remaining protein rate (%) XIAP” value at XIAP is recorded as “C (50%<C≤75%)”. Further, in assay [1], the inhibition at 3 µM is greater than 75%.
